Measurements taken from patent US20080118458A1, “Agent containing L-Carnitine or L-Carnitine derivatives and at least one other specific substance” (priority 2005, published 2008).

Legend:
[1] = system: Keratinocyte Growth Factor (KGF); experiment: Release of KGF into the medium of organotypical cell cultures (ELISA); format: cell-based; conditions: 72 h; individual substance 0.01%; untreated = 100
Method: (§1) Hepatocyte Growth Factor (HGF) and Keratinocyte Growth Factor (KGF) are important growth factors which are released from the dermal papillae in order to control the proliferation of the hair keratinocytes. A potentially growth-promoting and hair-strengthening substance can be assumed from an increase in the factors released into the medium. The release of HGF and KGF can be quantified with the help of commercially available ELISA kits. For this, organotypical cell cultures are incubated over 72 h with the substance mixture and the concentration of the growth factors in the medium is determined in the described manner.

[2] = system: Hepatocyte Growth Factor (HGF); experiment: Release of HGF into the medium of organotypical cell cultures (ELISA); format: cell-based; conditions: 72 h; individual substance 0.01%; untreated = 100
Method: as §1

| SMILES | KGF mean [%] (standard deviation) [1] | HGF mean [%] (standard deviation) [2] |
| --- | --- | --- |
| C[N+](C)(C)C[C@H](O)CC(=O)[O-].O=C(O)C(O)C(O)C(=O)O [Carnitine tartrate, L-carnitine tartrate] | 108 (8) % | 100 (42) % |
| NCCS(=O)(=O)O [Taurine, 2-aminoethanesulfonic acid] | 71 (7) % | 120 (21) % |
